Tests used:
Experiment in all cases: co-expression with SlCPT2 in E. coli and N. benthamiana, GC-MS
Format in all cases: cell-based
Settings in all cases: NNPP formed in cells by SlCPT2; E. coli 18 °C, 48 h
EdtTPS4 = biological target: T1, EdtTPS4 (Eremophila denticulata, UniProt A0A6G9KV06)
T1 construct: full length in N. benthamiana; TPS-a class I

ElTPS31 = biological target: T2, ElTPS31 (Eremophila lucida, UniProt A0A6G9KSS8)
T2 construct: full length in N. benthamiana; TPS-b class I

EdTPS22 = biological target: T3, EdTPS22 (Eremophila drummondii, UniProt A0A6G9KSU3)
T3 construct: full length in N. benthamiana; TPS-a class I
T3 sequence (A0A6G9KSU3 entry or part of it): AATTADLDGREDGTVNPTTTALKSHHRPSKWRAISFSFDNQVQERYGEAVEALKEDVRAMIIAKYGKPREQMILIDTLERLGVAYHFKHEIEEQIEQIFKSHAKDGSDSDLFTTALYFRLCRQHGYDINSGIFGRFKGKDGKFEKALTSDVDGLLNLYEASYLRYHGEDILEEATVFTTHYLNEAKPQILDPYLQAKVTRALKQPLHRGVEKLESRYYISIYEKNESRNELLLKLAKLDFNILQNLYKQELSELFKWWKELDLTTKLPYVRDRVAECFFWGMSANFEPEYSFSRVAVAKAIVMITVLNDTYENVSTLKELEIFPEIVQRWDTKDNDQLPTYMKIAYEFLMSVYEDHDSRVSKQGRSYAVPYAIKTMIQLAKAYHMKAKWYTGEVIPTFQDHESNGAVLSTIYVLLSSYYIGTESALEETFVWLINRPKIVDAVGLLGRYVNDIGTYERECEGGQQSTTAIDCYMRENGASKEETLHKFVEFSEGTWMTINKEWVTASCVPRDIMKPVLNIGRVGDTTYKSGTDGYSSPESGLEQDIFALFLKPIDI

ElTPS3 = biological target: T4, ElTPS3 (Eremophila lucida, UniProt A0A6G9KVC7)
T4 construct: full length in N. benthamiana; TPS-a class I
T4 sequence (A0A6G9KVC7 entry or part of it): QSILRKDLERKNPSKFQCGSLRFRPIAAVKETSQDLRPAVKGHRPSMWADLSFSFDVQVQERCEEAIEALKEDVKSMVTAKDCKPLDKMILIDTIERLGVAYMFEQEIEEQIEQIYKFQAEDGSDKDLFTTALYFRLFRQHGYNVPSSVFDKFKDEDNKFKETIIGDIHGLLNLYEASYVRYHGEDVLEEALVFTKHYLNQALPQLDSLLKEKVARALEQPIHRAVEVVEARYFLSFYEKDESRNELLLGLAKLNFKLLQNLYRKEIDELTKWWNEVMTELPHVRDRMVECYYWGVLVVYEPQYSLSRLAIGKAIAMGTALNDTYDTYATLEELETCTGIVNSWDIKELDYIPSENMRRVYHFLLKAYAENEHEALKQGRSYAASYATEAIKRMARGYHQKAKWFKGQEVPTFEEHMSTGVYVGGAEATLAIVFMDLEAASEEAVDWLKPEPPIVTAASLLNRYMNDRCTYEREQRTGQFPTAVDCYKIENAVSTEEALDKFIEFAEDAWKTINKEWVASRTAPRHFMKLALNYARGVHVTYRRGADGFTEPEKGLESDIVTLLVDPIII

T1 sequence (A0A6G9KV06 entry or part of it): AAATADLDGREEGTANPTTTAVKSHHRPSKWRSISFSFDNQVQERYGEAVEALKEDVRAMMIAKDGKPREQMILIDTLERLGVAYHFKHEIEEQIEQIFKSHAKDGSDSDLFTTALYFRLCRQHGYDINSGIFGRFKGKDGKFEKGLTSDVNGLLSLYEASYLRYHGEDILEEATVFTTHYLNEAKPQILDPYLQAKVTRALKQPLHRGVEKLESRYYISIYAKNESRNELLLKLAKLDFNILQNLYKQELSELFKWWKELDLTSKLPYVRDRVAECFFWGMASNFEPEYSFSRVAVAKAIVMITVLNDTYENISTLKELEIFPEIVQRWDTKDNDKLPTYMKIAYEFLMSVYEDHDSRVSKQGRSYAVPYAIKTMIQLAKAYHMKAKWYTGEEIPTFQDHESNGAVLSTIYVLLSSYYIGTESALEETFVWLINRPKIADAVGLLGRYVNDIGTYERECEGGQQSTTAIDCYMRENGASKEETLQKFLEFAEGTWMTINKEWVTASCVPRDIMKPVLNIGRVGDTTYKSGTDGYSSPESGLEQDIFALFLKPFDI
T2 sequence (A0A6G9KSS8 entry or part of it): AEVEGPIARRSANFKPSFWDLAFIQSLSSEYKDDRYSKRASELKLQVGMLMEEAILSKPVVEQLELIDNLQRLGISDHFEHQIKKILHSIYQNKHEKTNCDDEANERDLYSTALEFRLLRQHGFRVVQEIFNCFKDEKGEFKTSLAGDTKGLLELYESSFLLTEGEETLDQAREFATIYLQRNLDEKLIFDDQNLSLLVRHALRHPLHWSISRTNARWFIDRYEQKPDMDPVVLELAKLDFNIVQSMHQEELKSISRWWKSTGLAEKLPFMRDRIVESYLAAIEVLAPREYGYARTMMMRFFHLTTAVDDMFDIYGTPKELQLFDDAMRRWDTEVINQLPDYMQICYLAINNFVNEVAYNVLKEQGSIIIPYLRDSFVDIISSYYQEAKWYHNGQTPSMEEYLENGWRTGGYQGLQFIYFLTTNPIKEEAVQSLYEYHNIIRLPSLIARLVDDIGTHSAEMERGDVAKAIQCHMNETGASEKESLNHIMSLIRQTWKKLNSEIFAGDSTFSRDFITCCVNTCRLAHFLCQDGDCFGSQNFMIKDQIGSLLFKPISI

## CC(C)=CCC/C(C)=C\CC/C(C)=C\CC/C(C)=C\COP(=O)(O)OP(=O)(O)O [nerylneryl diphosphate]
EdtTPS4
  co-expression with SlCPT2 in E. coli and N. benthamiana, GC-MS: co-expression of either one of ElTPS3, ElTPS31, EdtTPS4 or EdTPS22 with NNPP-forming SlCPT2
ElTPS31
  co-expression with SlCPT2 in E. coli and N. benthamiana, GC-MS: co-expression of either one of ElTPS3, ElTPS31, EdtTPS4 or EdTPS22 with NNPP-forming SlCPT2
EdTPS22
  co-expression with SlCPT2 in E. coli and N. benthamiana, GC-MS: co-expression of either one of ElTPS3, ElTPS31, EdtTPS4 or EdTPS22 with NNPP-forming SlCPT2
ElTPS3
  co-expression with SlCPT2 in E. coli and N. benthamiana, GC-MS: co-expression of either one of ElTPS3, ElTPS31, EdtTPS4 or EdTPS22 with NNPP-forming SlCPT2

— PMC7049213, “Nerylneryl diphosphate is the precursor of serrulatane, viscidane and cembrane-type diterpenoids in Eremophila species” (BMC Plant Biology, 2020)
